The record followed here is patent US5591757A, “Dihydropyridine composition” (Yamanouchi Pharmaceutical Co., Ltd., priority 1984, dated 1997).

Assay [1] deals with T1, Beta-adrenoceptor (Rattus norvegicus, UniProt P18090). The assay is described as follows: Beta-adrenoceptor blocking effect in reserpinized rats (isoproterenol chronotropy). Set-up: The rats were anesthetized with pentobarbital sodium; from tissue; host or cells: heart in the living anesthetized male Wistar rat (reserpine-pretreated, vagotomized). It is filed as in vivo, male Wistar rats. The following applies: isoproterenol 0.1 μg/kg iv, cumulative iv doses, read-out: Beta-Blocking ED50 (50% blockade of positive chronotropic response to isoproterenol). The method, then:
(§1) The rats were pretreated with reserpine (8 mg/kg ip), 18 hr before experiments. […] The heart rate was measured with a cardiotachometer triggered by the QRS of the ECG (lead II) and recorded on a polygraph. After the Control response to isoproterenol at a dose of 0.1 μg/kg iv was obtained, the test compound was injected iv in increasing doses at 20 min intervals.

The next assay has as its target calcium channels. Kind of assay: [^3 H]-nitrendipine binding to rat brain membrane.
The subject of a further assay is left coronary artery. The assay is described as follows: Coronary vasodilating effects in dogs (intracoronary). It is filed as in vivo, mongrel dogs. The conditions noted are these: for Duration of action of coronary vasodilating effect: intracoronary (ia). As to the method: Mongrel dogs of either sex were anesthetized and ventilated as previously described. A thoracotomy was performed at the 4th intercostal space. Following an intravenous injection of heprin (1000 units/kg), blood from the distal end of the cannulated carotid artery was pumped into circumflex branch of the left coronary artery using a servocontrolled peristaltic pump which maintained a constant perfusion pressure of 120 mmHg by means of a pump controller. An electromagnetic flow probe was inserted in the circit to record blood flow through the cannulated coronary artery. The test compounds were administered directly into the rubber tubing connected close to the coronary artery cannula.

Assay [2] deals with T1, Beta-adrenoceptor. Kind of assay: Intrinsic sympathomimetic activity (ISA) in reserpinized rats. It is filed as in vivo, male Wistar rats. Details: The rats were anesthetized with pentobarbital sodium; from tissue; host or cells: heart in the living anesthetized male Wistar rat (reserpine-pretreated, vagotomized). The following applies: reserpine-pretreated rats, iv. As to the method:
as §1
In this series of experiments, intrinsic sympathomimetic activity (ISA) was also evaluated.

For assay [3], the system named is mean arterial blood pressure (MBP) and coronary blood flow (Cor. BF). Kind of assay: Hemodynamic effects in anesthetized open-chest dogs (i.v.). It is filed as in vivo, mongrel dogs. The following applies: Canis lupus familiaris; for change in vivo at 0.3 mg/kg: 0.3 mg/kg iv, anesthetized dogs; for change in vivo at 0.1 mg/kg: iv. The method, then:
Mongrel dogs of either sex were anesthetized with pentobarbital sodium (30 mg/kg iv). The animals were artificially ventilated with room air. The chest was opened at the left 4th intercostal space. Mean arterial blood pressure (MBP), heart rate (HR), left ventricular pressure (LVP), max. dLVP/dt, mean pulmonary arterial blood pressure (MPAP), cardiac output (CO) and coronary blood flow (Cor. BF) were measured. The test compounds were injected into the femoral vein. […] BF from control values induced by intravenous injection of test compounds.

The test system of the next assay is rabbit thoracic aorta. The assay is described as follows: Effect on KCl-induced contraction of rabbit aorta. The following applies: Oryctolagus cuniculus, read-out: IC50, K contraction.
Assay [4] has as its target T1, Beta-adrenoceptor. Kind of assay: cell-based. The following applies: isolated rat right atria, (-)-isoproterenol-induced positive chronotropy; read-out: KB (antagonist dissociation constant).
Excerpt: Beta-adrenoceptor blocking effect of test compounds was estimated by antagonism of (-)-isoproterenol-induced positive chronotropy.
Another assay relates to dog coronary artery. The assay is described as follows: Effect on 3,4-diaminopyridine (3,4-DAP)-induced rythmic contraction. The following applies: Canis lupus familiaris, read-out: IC50, 3,4-DAP contraction. It is filed as cell-based. The method, then: The ring segments were cannulated with two triangle stainless-steel hooks and suspended vertically in Krebs-Henseleit solution under the same condition described previously. Preparations were set up under a resting tension of 1.0 g and rhythmic contractions were induced by application of 10 mM 3,4-DAP. Test compound was cumulatively added into the medium. IC50 was estimated from dose-response curves (Table 2, column 2).

The mark [5] stands for this setting: read-out: percent change of Cor. BF from control.
The mark [6] stands for this setting: read-out: percent change of MBP from control.
Where [7] appears, read: dog coronary artery, 10 mM 3,4-DAP.

Structures are written as SMILES. pIC50, pKi: −log10 of the molar value. Where a name gives a salt, the structure may show the parent alone. Read-outs that look alike come from different tables or passages of the source.

In general, ED50 refers to the midpoint of the dose-response relation. What is called pIC50 is the IC50 on a negative log10 scale, so that one unit is a factor of ten. The pKi is −log10 of the Ki, conventionally taken in molar units. In general, Kb refers to the affinity of an antagonist, worked out from how it opposes an agonist.

T1 sequence (P18090 whole entry): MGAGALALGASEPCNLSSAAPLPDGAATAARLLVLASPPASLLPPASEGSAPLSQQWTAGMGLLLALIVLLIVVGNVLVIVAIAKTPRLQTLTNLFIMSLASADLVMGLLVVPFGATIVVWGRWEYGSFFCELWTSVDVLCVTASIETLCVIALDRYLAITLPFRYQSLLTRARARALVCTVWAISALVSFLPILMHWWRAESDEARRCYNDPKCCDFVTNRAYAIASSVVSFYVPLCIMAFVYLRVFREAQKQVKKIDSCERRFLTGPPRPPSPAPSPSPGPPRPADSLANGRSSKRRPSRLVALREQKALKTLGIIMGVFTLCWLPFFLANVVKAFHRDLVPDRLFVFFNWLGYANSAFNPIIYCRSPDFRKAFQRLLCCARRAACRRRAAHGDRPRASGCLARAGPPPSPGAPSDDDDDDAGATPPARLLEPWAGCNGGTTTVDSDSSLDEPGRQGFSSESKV

With `COC(=O)C1=C(C)NC(C)=C(C(=O)OCCCCCCNCC(O)COc2ccccc2)C1c1cccc([N+](=O)[O-])c1.Cl` (stereo not shown) [Example 12, 6-(2-hydroxy-3-phenoxy-propylamino)hexyl methyl 2,6-dimethyl-4-(m-nitro-phenyl)-1,4-dihydropyridine-3,5-dicarboxylate hydrochloride], the ED50 at Beta-adrenoceptor [1] amounted to 0.6 mg/kg. Also, at calcium channels, the pIC50 was 7.92; the pKi was 8.21; the “Slope, ^3 H-Nitrendipine binding” value stood at 1.38. Besides, in the assay with left coronary artery, the “ED100 pap (dose for 100% increase of Cor. BF; maximum response to papaverine 300 μg ia = 100%)” value was determined as 100 μg ia and the “Duration of action of coronary vasodilating effect” value (“Duration” for short) was above 60 min. In addition, the “ISA (increase in HR)” value at Beta-adrenoceptor [2] is “-”. For the same compound, the change in vivo at 0.3 mg/kg in assay [3] (setting [5]) turned out to be 45%. In assay [3] (setting [6]), the change in vivo at 0.3 mg/kg is -26%. For the same compound, the pIC50 in the assay on rabbit thoracic aorta is 7.48. Also, the Kb at Beta-adrenoceptor [4] turned out to be 63 nM. Also, the pIC50 in the assay with dog coronary artery (setting [7]) is 7.72.

`COc1ccc(CCN(C)CCCC(C#N)(c2ccc(OC)c(OC)c2)C(C)C)cc1OC` (stereo not shown) [Verapamil, reference compound]: the “ED100 pap (dose for 100% increase of Cor. BF; maximum response to papaverine 300 μg ia = 100%)” value in the assay with left coronary artery is recorded as 8 μg ia. Further, the change in vivo at 0.1 mg/kg in assay [3] (setting [5]) is 95%; in assay [3] (setting [6]), -23%. The pIC50 is 7.12 with rabbit thoracic aorta and 6.90 in the assay with dog coronary artery.

As for `CCOC(=O)C1=C(C)NC(C)=C(C(=O)OCCCCCCNCC(O)COc2ccccc2)C1c1cccc([N+](=O)[O-])c1` (stereo not shown) [Example 18, Ethyl 6-(2-hydroxy-3-phenoxy/propylamino)hexyl 2,6-dimethyl-4-(m-nitrophenyl)-1,4-dihydroxypyridine-3,5-dicarboxylate], the ED50 on Beta-adrenoceptor [1] was 1.25 mg/kg. Besides, the “ED100 pap (dose for 100% increase of Cor. BF; maximum response to papaverine 300 μg ia = 100%)” value with left coronary artery worked out at 67 μg ia. Also, in the assay with left coronary artery, the “Duration” value is recorded as above 60 min. For the same compound, the “ISA (increase in HR)” value on Beta-adrenoceptor [2] is “-”. Also, the results for the change in vivo at 0.3 mg/kg in assay [3] (setting [5]) and in assay [3] (setting [6]) were 31% and -22%, respectively.

Take `COC(=O)C1=C(C)NC(C)=C(C(=O)OCCN(C)Cc2ccccc2)C1c1cccc([N+](=O)[O-])c1` (stereo not shown) [Nicardipine, reference compound]: on calcium channels, the pIC50 is 8.80; the pKi is 9.05; the “Slope, ^3 H-Nitrendipine binding” value came out at 0.90. The pIC50 in the assay with rabbit thoracic aorta is 9.00. The pIC50 with dog coronary artery (setting [7]) was 8.68.

Consider `COCCOC(=O)C1=C(C)NC(C)=C(C(=O)OCCCCCCNCC(O)COc2ccccc2)C1c1cccc([N+](=O)[O-])c1` (stereo not shown) [Example 22, 6-(2-hydroxy-3-phenoxy-propylamino)hexyl 2-methoxyethyl-2,6-dimethyl-4-(m-nitrophenyl-3,5-dicarboxylate hydrochloride], for which the ED50 at Beta-adrenoceptor [1] was found to be 0.82 mg/kg. The “ED100 pap (dose for 100% increase of Cor. BF; maximum response to papaverine 300 μg ia = 100%)” value with left coronary artery amounted to 128 μg ia. Besides, in the assay with left coronary artery, the “Duration” value is on record as 60 min. Moreover, the “ISA (increase in HR)” value on Beta-adrenoceptor [2] is listed as “-”. Moreover, the change in vivo at 0.3 mg/kg in assay [3] (setting [5]) was 118%; in assay [3] (setting [6]), -22%.
